{"source": "ChEMBL document CHEMBL1687815", "about": "“In vivo selection of a missense mutation in adeR and conversion of the novel blaOXA-164 gene into blaOXA-58 in carbapenem-resistant Acinetobacter baumannii isolates from a hospitalized patient” (2010)", "key": {"Acinetobacter baumannii [1]": {"tested_on": "Acinetobacter baumannii", "assay": "Antimicrobial activity against Acinetobacter baumannii isolate G expressing beta-lactamase OXA-58 isolated from tracheal secretion of patient by vitek 2 system"}, "Acinetobacter baumannii [2]": {"tested_on": "Acinetobacter baumannii", "assay": "Antimicrobial activity against Acinetobacter baumannii isolate L expressing beta-lactamase OXA-58 isolated from tracheal secretion of patient by Etest"}, "Acinetobacter baumannii [3]": {"tested_on": "Acinetobacter baumannii", "assay": "Antimicrobial activity against Acinetobacter baumannii isolate F expressing beta-lactamase OXA-164 isolated from tracheostoma of patient by vitek 2 system"}, "Acinetobacter baumannii [4]": {"tested_on": "Acinetobacter baumannii", "assay": "Antimicrobial activity against Acinetobacter baumannii isolate H expressing beta-lactamase OXA-58 isolated from tracheal secretion of patient by vitek 2 system"}, "Acinetobacter baumannii [5]": {"tested_on": "Acinetobacter baumannii", "assay": "Antimicrobial activity against Acinetobacter baumannii ATCC 19606 harboring beta-lactamase OXA-164 by Etest", "format": "functional", "conditions": "ATCC 19606 = CIP 70.34 = JCM 6841"}, "Acinetobacter baumannii [6]": {"tested_on": "Acinetobacter baumannii", "assay": "Antimicrobial activity against Acinetobacter baumannii isolate E expressing beta-lactamase OXA-164 isolated from tracheal secretion of patient by vitek 2 system"}, "Escherichia coli [7]": {"tested_on": "Escherichia coli", "assay": "Antimicrobial activity against Escherichia coli NEB 5-alpha harboring beta-lactamase OXA-58 by Etest", "format": "functional"}, "Acinetobacter baumannii [8]": {"tested_on": "Acinetobacter baumannii", "assay": "Antimicrobial activity against Acinetobacter baumannii isolate C expressing beta-lactamase OXA-164 isolated from tracheal secretion of patient by vitek 2 system"}, "Acinetobacter baumannii [9]": {"tested_on": "Acinetobacter baumannii", "assay": "Antimicrobial activity against Acinetobacter baumannii isolate H expressing beta-lactamase OXA-58 isolated from tracheal secretion of patient by Etest"}, "Acinetobacter baumannii [10]": {"tested_on": "Acinetobacter baumannii", "assay": "Antimicrobial activity against Acinetobacter baumannii isolate M expressing beta-lactamase OXA-58 isolated from tracheal secretion of patient by Etest"}, "Acinetobacter baumannii [11]": {"tested_on": "Acinetobacter baumannii", "assay": "Antimicrobial activity against Acinetobacter baumannii ATCC 19606 harboring plasmid WH1266 by Etest", "format": "functional", "conditions": "ATCC 19606 = CIP 70.34 = JCM 6841"}, "Acinetobacter baumannii [12]": {"tested_on": "Acinetobacter baumannii", "assay": "Antimicrobial activity against Acinetobacter baumannii isolate E expressing beta-lactamase OXA-164 isolated from tracheal secretion of patient by Etest"}, "Acinetobacter baumannii [13]": {"tested_on": "Acinetobacter baumannii", "assay": "Antimicrobial activity against Acinetobacter baumannii isolate B expressing beta-lactamase OXA-164 isolated from tracheal secretion of patient by Etest"}, "Acinetobacter baumannii [14]": {"tested_on": "Acinetobacter baumannii", "assay": "Antimicrobial activity against Acinetobacter baumannii ATCC 17978 harboring beta-lactamase OXA-58 by Etest", "format": "functional"}, "Acinetobacter baumannii [15]": {"tested_on": "Acinetobacter baumannii", "assay": "Antimicrobial activity against Acinetobacter baumannii isolate G expressing beta-lactamase OXA-58 isolated from tracheal secretion of patient by Etest"}, "Acinetobacter baumannii [16]": {"tested_on": "Acinetobacter baumannii", "assay": "Antimicrobial activity against Acinetobacter baumannii isolate B expressing beta-lactamase OXA-164 isolated from tracheal secretion of patient by vitek 2 system"}, "Escherichia coli [17]": {"tested_on": "Escherichia coli", "assay": "Antimicrobial activity against Escherichia coli NEB 5-alpha harboring plasmid WH1266 by Etest", "format": "functional"}, "Acinetobacter baumannii [18]": {"tested_on": "Acinetobacter baumannii", "assay": "Antimicrobial activity against Acinetobacter baumannii isolate K expressing beta-lactamase OXA-58 isolated from blood culture of patient by vitek 2 system"}, "Acinetobacter baumannii [19]": {"tested_on": "Acinetobacter baumannii", "assay": "Antimicrobial activity against Acinetobacter baumannii isolate D expressing beta-lactamase OXA-164 isolated from tracheal secretion of patient by Etest"}, "Escherichia coli [20]": {"tested_on": "Escherichia coli", "assay": "Antimicrobial activity against Escherichia coli NEB 5-alpha harboring beta-lactamase OXA-164 by Etest", "format": "functional"}, "Acinetobacter baumannii [21]": {"tested_on": "Acinetobacter baumannii", "assay": "Antimicrobial activity against Acinetobacter baumannii isolate J expressing beta-lactamase OXA-58 isolated from bedsore by vitek 2 system"}, "Acinetobacter baumannii [22]": {"tested_on": "Acinetobacter baumannii", "assay": "Antimicrobial activity against Acinetobacter baumannii ATCC 19606 harboring beta-lactamase OXA-58 by Etest", "format": "functional", "conditions": "ATCC 19606 = CIP 70.34 = JCM 6841"}, "Acinetobacter baumannii [23]": {"tested_on": "Acinetobacter baumannii", "assay": "Antimicrobial activity against Acinetobacter baumannii ATCC 17978 harboring plasmid WH1266 by Etest", "format": "functional"}, "Acinetobacter baumannii [24]": {"tested_on": "Acinetobacter baumannii", "assay": "Antimicrobial activity against Acinetobacter baumannii isolate K expressing beta-lactamase OXA-58 isolated from blood culture of patient by Etest"}, "Acinetobacter baumannii [25]": {"tested_on": "Acinetobacter baumannii", "assay": "Antimicrobial activity against Acinetobacter baumannii isolate J expressing beta-lactamase OXA-58 isolated from bedsore by Etest"}, "Acinetobacter baumannii [26]": {"tested_on": "Acinetobacter baumannii", "assay": "Antimicrobial activity against Acinetobacter baumannii isolate C expressing beta-lactamase OXA-164 isolated from tracheal secretion of patient by Etest"}, "Acinetobacter baumannii [27]": {"tested_on": "Acinetobacter baumannii", "assay": "Antimicrobial activity against Acinetobacter baumannii isolate A expressing beta-lactamase OXA-164 isolated from tracheal secretion of patient by Etest"}, "Acinetobacter baumannii [28]": {"tested_on": "Acinetobacter baumannii", "assay": "Antimicrobial activity against Acinetobacter baumannii isolate A expressing beta-lactamase OXA-164 isolated from tracheal secretion of patient by vitek 2 system"}, "Acinetobacter baumannii [29]": {"tested_on": "Acinetobacter baumannii", "assay": "Antimicrobial activity against Acinetobacter baumannii isolate F expressing beta-lactamase OXA-164 isolated from tracheostoma of patient by Etest"}, "Acinetobacter baumannii [30]": {"tested_on": "Acinetobacter baumannii", "assay": "Antimicrobial activity against Acinetobacter baumannii isolate I expressing beta-lactamase OXA-58 isolated from tracheal secretion of patient by vitek 2 system"}, "Acinetobacter baumannii [31]": {"tested_on": "Acinetobacter baumannii", "assay": "Antimicrobial activity against Acinetobacter baumannii isolate M expressing beta-lactamase OXA-58 isolated from tracheal secretion of patient by vitek 2 system"}, "Acinetobacter baumannii [32]": {"tested_on": "Acinetobacter baumannii", "assay": "Antimicrobial activity against Acinetobacter baumannii isolate L expressing beta-lactamase OXA-58 isolated from tracheal secretion of patient by vitek 2 system"}, "Acinetobacter baumannii [33]": {"tested_on": "Acinetobacter baumannii", "assay": "Antimicrobial activity against Acinetobacter baumannii by vitek 2 system"}, "Acinetobacter baumannii [34]": {"tested_on": "Acinetobacter baumannii", "assay": "Antimicrobial activity against Acinetobacter baumannii ATCC 17978 harboring beta-lactamase OXA-164 by Etest", "format": "functional"}, "Acinetobacter baumannii [35]": {"tested_on": "Acinetobacter baumannii", "assay": "Antimicrobial activity against Acinetobacter baumannii isolate I expressing beta-lactamase OXA-58 isolated from tracheal secretion of patient by Etest"}, "Acinetobacter baumannii [36]": {"tested_on": "Acinetobacter baumannii", "assay": "Antimicrobial activity against Acinetobacter baumannii isolate D expressing beta-lactamase OXA-164 isolated from tracheal secretion of patient by vitek 2 system"}}}
{"smiles": "C[C@@H](O)[C@H]1C(=O)N2C(C(=O)O)=C(SCCNC=N)C[C@H]12", "note": "[IMIPENEM ANHYDROUS]", "values": [{"measurement": "MIC", "setting": "Acinetobacter baumannii [1]", "value": "≥ 16", "unit": "µg/mL"}, {"measurement": "MIC", "setting": "Acinetobacter baumannii [2]", "value": "≥ 64", "unit": "µg/mL"}, {"measurement": "MIC", "setting": "Acinetobacter baumannii [3]", "value": "≥ 16", "unit": "µg/mL"}, {"measurement": "MIC", "setting": "Acinetobacter baumannii [4]", "value": "≥ 16", "unit": "µg/mL"}, {"measurement": "MIC", "setting": "Acinetobacter baumannii [5]", "value": "> 32", "unit": "µg/mL"}, {"measurement": "MIC", "setting": "Acinetobacter baumannii [6]", "value": "≥ 16", "unit": "µg/mL"}, {"measurement": "MIC", "setting": "Escherichia coli [7]", "value": 0.5, "unit": "µg/mL"}, {"measurement": "MIC", "setting": "Acinetobacter baumannii [8]", "value": "≥ 16", "unit": "µg/mL"}, {"measurement": "MIC", "setting": "Acinetobacter baumannii [9]", "value": "≥ 64", "unit": "µg/mL"}, {"measurement": "MIC", "setting": "Acinetobacter baumannii [10]", "value": "≥ 64", "unit": "µg/mL"}, {"measurement": "MIC", "setting": "Acinetobacter baumannii [11]", "value": 0.125, "unit": "µg/mL"}, {"measurement": "MIC", "setting": "Acinetobacter baumannii [12]", "value": 32, "unit": "µg/mL"}, {"measurement": "MIC", "setting": "Acinetobacter baumannii [13]", "value": 32, "unit": "µg/mL"}, {"measurement": "MIC", "setting": "Acinetobacter baumannii [14]", "value": "> 32", "unit": "µg/mL"}, {"measurement": "MIC", "setting": "Acinetobacter baumannii [15]", "value": "≥ 64", "unit": "µg/mL"}, {"measurement": "MIC", "setting": "Acinetobacter baumannii [16]", "value": "≥ 16", "unit": "µg/mL"}, {"measurement": "MIC", "setting": "Escherichia coli [17]", "value": 0.19, "unit": "µg/mL"}, {"measurement": "MIC", "setting": "Acinetobacter baumannii [18]", "value": "≥ 16", "unit": "µg/mL"}, {"measurement": "MIC", "setting": "Acinetobacter baumannii [19]", "value": 32, "unit": "µg/mL"}, {"measurement": "MIC", "setting": "Escherichia coli [20]", "value": 0.25, "unit": "µg/mL"}, {"measurement": "MIC", "setting": "Acinetobacter baumannii [21]", "value": "≥ 16", "unit": "µg/mL"}, {"measurement": "MIC", "setting": "Acinetobacter baumannii [22]", "value": "> 32", "unit": "µg/mL"}, {"measurement": "MIC", "setting": "Acinetobacter baumannii [23]", "value": 0.25, "unit": "µg/mL"}, {"measurement": "MIC", "setting": "Acinetobacter baumannii [24]", "value": "≥ 64", "unit": "µg/mL"}, {"measurement": "MIC", "setting": "Acinetobacter baumannii [25]", "value": "≥ 64", "unit": "µg/mL"}, {"measurement": "MIC", "setting": "Acinetobacter baumannii [26]", "value": 32, "unit": "µg/mL"}, {"measurement": "MIC", "setting": "Acinetobacter baumannii [27]", "value": 32, "unit": "µg/mL"}, {"measurement": "MIC", "setting": "Acinetobacter baumannii [28]", "value": 8, "unit": "µg/mL"}, {"measurement": "MIC", "setting": "Acinetobacter baumannii [29]", "value": 32, "unit": "µg/mL"}, {"measurement": "MIC", "setting": "Acinetobacter baumannii [30]", "value": "≥ 16", "unit": "µg/mL"}, {"measurement": "MIC", "setting": "Acinetobacter baumannii [31]", "value": "≥ 16", "unit": "µg/mL"}, {"measurement": "MIC", "setting": "Acinetobacter baumannii [32]", "value": "≥ 16", "unit": "µg/mL"}, {"measurement": "MIC", "setting": "Acinetobacter baumannii [33]", "value": 8, "unit": "µg/mL"}, {"measurement": "MIC", "setting": "Acinetobacter baumannii [34]", "value": "> 32", "unit": "µg/mL"}, {"measurement": "MIC", "setting": "Acinetobacter baumannii [35]", "value": "≥ 64", "unit": "µg/mL"}, {"measurement": "MIC", "setting": "Acinetobacter baumannii [36]", "value": "≥ 16", "unit": "µg/mL"}]}
